The nature of the data set: Simulation experiment of in vitro transdermal drug delivery in pig skin (Franz diffusion cell). The data set is classed as in vitro ADME. The following applies: 37° C. The text has this:
Simulation experiment of in vitro transdermal drug delivery in pig skin:
(1) pig skin with a thickness of 300-500 μm and an area of 1.0 cm^2 was selected and placed between the Franz diffusion cell supply cell and the Franz diffusion cell receiving cell. An […] side of the pig skin was oriented toward the supply cell, and then the patch apparatus was placed in the supply cell and was attached to the epidermis of the pig skin. The receiving cell was filled with phosphate buffered saline to simulate blood circulation, and the temperature in the receiving cell was maintained at 37° C. to simulate human body temperature.
(2) Set the electric quantity: 0.1 mA, the conduction time is 24 hours as desired. Press a power switch of the patch apparatus.

The mark [1] stands for this setting: this method/apparatus, quantity of electric charge 2.4 mA * hour (0.1 mA, 24 hours).
Setting [2] is: traditional patch, quantity of electric charge 0 mA * hour, 24 hours.

Consider 1 compound from patent publication US11511095B2, “Portable transdermal administration patch apparatus and preparation method thereof” (CHANGZHOU HUALIAN HEALTH DRESSING LTD., priority 2017, dated 2022).

SMILES strings stand for the structures.

Consider `Cc1nccn1CC1CCc2c(c3ccccc3n2C)C1=O` (stereo not shown) [ondansetron], for which the “Administration dosage (μg/cm^2 skin area contacted by the drug formulation)” value reads like this: under setting [1], 53.2 μg/cm^2; under setting [2], 1.2 μg/cm^2. The Administration speed is recorded as 1.8 μg/(cm^2 * h) under setting [1] and 0.1 μg/(cm^2 * h) under setting [2].
